{
  "source": "patent EP0571670A1",
  "about": "“Pharmaceutical compositions for use as mast cell stabilizer” (THE PROCTER & GAMBLE COMPANY, priority 1992, dated 1993)",
  "key": {"[1]": {"system": "rat peritoneal mast cells", "assay": "Mast cell stabilization test: induced histamine release", "assay_type": "cell-based, Wistar male rats", "details": "at the concentrations used: sodium cromoglycate 0.005 %, menthol 0.025 %, camphor 0.015 %, eucalyptol 0.0075 %", "experimental": "(§1) Peritoneal rat mast cells are collected from 250 to 300 g Wistar male rats by the following procedure. Following sacrifice, each rat is injected into the peritoneal cavity with 10 ml of ice cold HEPES-buffered salt solution (HBSS), pH 7.2, containing 5 U/ml heparin. The HBSS contains 137 mM of […], 10mM HEPES, 5mM D-glucose, 2.7 mM KCl, 0.4 mM NaH₂PO₄, 0.5 mM MgCl₂ and 1 % foetal calf serum (FCS). The abdomen is massaged gently for 2 to 3 minutes and then an incision is made in the abdomen, the buffer removed by a pipette, and the peritoneal cavity lavaged twice with ice-cold HBSS. The extract is then centrifuged at 200 rpm for 10 minutes at 20°C to collect the peritoneal mast cells. These cells are then suspended again in HBSS. A count of cells present is made using an aliquot of this suspension by staining with Kimura metachromatic stain. Typically, about 1.2 to 1.7x10⁶ mast cells are collected from each animal. The rat mast cells are then activated using a Compound 48/80 in the presence of the test aromatic and antihistamine compounds and histamine-release measured as follows. 720 µl aliquots containing 9 x 10⁴ mast cells at 37°C are added to vials containing various combinations of aromatic flavour compounds. The concentrations of tyloxapol, menthol, camphor, and eucalyptol are 0.7 %, 0.025 %, 0.015 %, and 0.0075 % respectively. The solutions are incubated for about 10 minutes before 200 µl aliquots are added to tubes containing 25 µl of Compound 48/80, 25 µl of sodium cromoglycate and/or buffer, giving a concentration of Compound 48/80 and sodium cromoglycate in the tubes of […] and 0.005 % respectively. The histamine release reactions in the tubes is terminated after 10 minutes (37°C) by adding 750 µl of ice-cold HBSS and centrifuging the resulting solution for 10 minutes at 2000 rpm at 4°C. The histamine released by stimulus and the total cell histamine content are respectively determined by assaying the supernatant liquid after acidification with 5 % trichloroacetic acid (TCA) and by disintegrating the cells in 5 % (TCA) followed by analysis by automated spectrofluoremetry. […] (The net histamine release induced by compound 48/80 at the concentration used (0.1 µg/ml) was about three times the net histamine release induced by tyloxapol (15.07 ± 2.0 %))."}, "[2]": {"system": "rat peritoneal mast cells", "assay": "Mast cell stabilization test: histamine release inhibition", "assay_type": "cell-based, Wistar male rats", "details": "for inhibition at 100 µM: Rattus norvegicus, Mast cell, 100 µM of sodium cromoglycate", "experimental": "as §1, with “Eucalyptol” for “(The net histamine release induced by compound 48/80”, “0.0075 % gave a 9 % (non-significant) inhibitory effect. Menthol at 0.025 %” for “the concentration used (0.1 µg/ml)”, “not effective.” for “about three times the net histamine release induced by tyloxapol (15.07 ± 2.0 %)).”"}},
  "note": "Like-named read-outs stand apart in the source and are kept apart here.",
  "data": [
    {"smiles": "CC1CCC(C(C)C)C(O)C1", "note": "(stereo not drawn) [menthol]", "values": [
      {"measurement": "release of histamine induced by the substance", "setting": "[1]", "result": "did not induce release of histamine"},
      {"measurement": "inhibition of histamine release", "setting": "[2]; menthol at 0.025 %", "result": "not effective"}
    ]},
    {"smiles": "CC12CCC(CC1)C(C)(C)O2", "note": "[eucalyptol]", "values": [
      {"measurement": "release of histamine induced by the substance", "setting": "[1]", "result": "did not induce release of histamine"},
      {"measurement": "inhibitory effect on histamine release", "setting": "[2]; eucalyptol at 0.0075 %, non-significant", "result": 9, "unit": "%"}
    ]},
    {"smiles": "O=C(O)c1cc(=O)c2c(OCC(O)COc3cccc4oc(C(=O)O)cc(=O)c34)cccc2o1", "note": "[sodium cromoglycate]", "values": [
      {"measurement": "release of histamine induced by the substance", "setting": "[1]", "result": "did not induce release of histamine"},
      {"measurement": "inhibition at 100 µM", "setting": "[2]; read-out: inhibition of Compound 48/80-induced histamine release", "result": 67, "unit": "%"},
      {"measurement": "inhibition at 100 µM", "setting": "[2]; read-out: inhibition of tyloxapol-induced histamine release", "result": 152, "unit": "%"}
    ]},
    {"smiles": "CC12CCC(CC1=O)C2(C)C", "note": "(stereo not drawn) [camphor]", "values": [
      {"measurement": "release of histamine induced by the substance", "setting": "[1]", "result": "did not induce release of histamine"},
      {"measurement": "inhibition of histamine release against Compound 48/80 and tyloxapol-induced histamine release", "setting": "[2]; camphor at 0.015 %, series of five experiments", "result": 45, "unit": "%"}
    ]}
  ]
}
